According to patent US7557092B2, “Purinergic modulation of smell” (University of Utah Research Foundation, priority 2002, dated 2009):

Legend:
[1] = test system: cultured mouse olfactory receptor neurons (ORNs); experiment: nystatin perforated-patch voltage-clamp of cultured ORNs; assay type: cell-based; conditions: 10 μM ATP
Description: The physiological activation of purinergic receptors in cultured mouse ORNs (Vargas and Lucero, 1999a) were examined using both electrophysiology (Danaceau and Lucero, 1998)(FIG. 2A), and calcium imaging (FIG. 2B-E). ATP (10 μM) evoked inward currents in 39% (27/69 ORNs) of the perforated-patched mouse ORNs during brief (1-10 s) applications (FIG. 2A). […] Rapid activation of inward current that closely followed the ATP stimulus profile with little or no desensitization was also observed, indicating involvement of non-desensitizing ionotropic P2X receptors [P2X4 and/or P2X7] (Ralevic and Burnstock, 1998)(FIG. 2A, cell 2) (14/27 cells; latency=81±15 ms, Imax=−235±74 pA). These electrophysiological results support the immunohistochemical evidence of expression of both purinergic receptor subtypes in ORNs.
(§1) To prepare olfactory epithelium slices, neonatal mice (postnatal day 0-6) were quickly decapitated, and the skin and lower jaw were removed. Tissue was mounted in ice cold Ringers onto a vibratome-cutting block and 300 μm slices were made. Primary cultures of mouse ORNs were made using the same protocol and culture conditions as described for rat olfactory receptor neurons (Vargas and Lucero, 1999a). Briefly, tissue was placed in divalent cation-free Ringers containing 10 mg/ml bovine serum albumin, 1 mg/ml deoxyribonuclease II and 44 U/ml dispase, incubated at 37° C. for 45 min. The tissue was washed, triturated, and filtered through a […] mesh and […] cells were plated onto concanavalin A-coated coverslips and allowed to settle for 20 min. An additional 1.5 ml of culture medium was added (DMEM supplemented with […] ascorbic acid, 1X insulin-transferrin-seleniumX (GIBCO BRL), 2 mM glutamine, 100 U/ml penicillin G and […] streptomycin).
The nystatin perforated-patch technique (Horn and Marty, 1988) was used to examine cells under voltage-clamp. Electrodes (2-5 MΩ) were filled with TMA-oxide internal solution (in mM: 62.5 TMA oxide, 62.5 KH2PO4, 15 KCl, 5 MgCl2, 11 EGTA, 10 HEPES, 1 glutathione, 5 TEA, 0.03% pluronic acid F-127, 0.3% DMSO, […] nystatin, pH 7.2, 330 mOsm).

[2] = test system: ORNs in mouse olfactory epithelium slices; experiment: confocal calcium imaging of fluo-4 AM loaded olfactory epithelium slices, ORNs; assay type: cell-based; conditions: 10 μM agonist superfused onto slice
From the text: To study the effects of ATP on odor responses, acutely prepared slices of mouse olfactory epithelium were used. Confocal imaging of fluo-4 AM-loaded olfactory epithelium slices allows simultaneous recording from identified structures within the olfactory epithelium, i.e., both ORNs and sustentacular cells. […] The difference in robustness can be due to poor access to the ATP stimulus: odorant receptors are on the cilia of the ORNs, which extend beyond the outer edge of the olfactory epithelium, whereas purinergic receptors are located deeper within the olfactory epithelium. […] The latency of activation for the ATP-evoked calcium transient was shorter in the ORN (FIG. 3B2, solid up arrowhead) than in sustentacular cells (FIG. 3B3, open down arrowhead). Collectively, this was consistent with ORNs expressing the faster P2X receptors, and the sustentacular cells expressing the slower G-protein coupled P2Y receptors.
as §1
[Ca^2+]i was determined using confocal imaging of fluo-4 AM (18 μM; Molecular Probes) loaded cells and slices. Cells or slices were placed in a laminar flow chamber (Warner Instruments) and perfused continuously with Ringers solution at a flow rate of 1.5-2.0 ml/min. Ringers contained (mM): 140 NaCl, 5 KCl, 1 MgCl2, 2 CaCl2, 10 HEPES, 10 glucose, […] and 400 nM tetrodotoxin. Test solutions were applied using bath exchange and a small volume loop injector (200 μl). A Zeiss LSM 510 confocal laser scanning system was used for data collection and analysis. Time series experiments were performed collecting 1400×700 pixel images at 0.2-0.4 Hz. The fluorometric signals obtained are expressed as relative fluorescence change, ΔF/F═(F−F0)/F0, where F0 is the basal fluorescence level. Increases in F greater than 10% above baseline noise were considered responses.

[3] = cells with long latent period (P2Y-like), 13/27 cells
[4] = rapidly activating cells (P2X-like), 14/27 cells

**Q.** Nc1ncnc2c1ncn2[C@@H]1O[C@H](COP(=O)(O)OP(=O)(O)OP(=O)(O)O)[C@@H](O)[C@H]1O [ATP, Adenosine 5′-triphosphate] was tested. Which “ORNs in which ATP evoked inward currents” value ([1]; brief (1-10 s) applications, perforated-patched mouse ORNs, 27/69 ORNs) did it give?
**A.** 39%

**Q.** And the Imax [1, 3]?
**A.** −29±8 pA

**Q.** And the “latency of inward current” value [1, 3]?
**A.** 1140 ± 236 ms

**Q.** What about the Imax [1, 4] of the same compound?
**A.** −235±74 pA

**Q.** What about the “latency of inward current” value [1, 4] of the same compound?
**A.** 81 ± 15 ms

**Q.** And the “agonist-evoked calcium transients in ORNs” value [2]?
**A.** evoked calcium transients from all 11 ORNs
